Reference: patent US8445491B2, “Wnt protein signalling inhibitors” (The Board of Regents of the University of Texas System, priority 2008, dated 2013)

Tests used:
[1] = test system: lung cancer and colorectal cancer cells; experiment: cancer cell growth study (Cell Titer Glo); type: cell-based; conditions: 6 days
Experimental: FIGS. 7A-D. Chemical inhibition of Wnt-mediated cellular responses in cancer. FIG. 7A. Growth-inhibitory effects of IWR and IWP compounds on cancerous cells. Cells derived from either lung or colon cancer, with known molecular changes that result in aberrant Wnt pathway response, were treated with increasing concentrations of either IWR-4 or IWP-1 for 6 days with medium and compounds replenished daily. Cell viability was measured using Cell-Titer Glo assays. FIG. 7B. Biochemical changes of Wnt pathway components in cancerous cells treated with either IWR or IWP compounds. Lysates from H460, or DLD-1 cells were treated with IWR or IWP and Western blotted for either Dvl2, Axin2, Axin1, or Actin. Whereas both cell lines express […], Axin2 expression is absent in H460 cells. FIG. 7C. Genetic evidence for non-β-catenin dependent Wnt-mediated signalling in cancerous cells. […]
In experiments involving IWR and IWP treatments, cancer cells were seeded into a 24 well format (2.5K cells/well) in the presence of the noted Wnt pathway inhibitors (0.5% DMSO final) Media and compound changed every 24 hours for 5 days. On day 6, ATP levels were quantitated via cell titer glo assay (Promega). […] ATP levels were measured 120 hrs later via Cell Titer Glo assay (Promega).

[2] = test system: caudal fin regeneration in zebrafish; experiment: caudal fin regeneration assay in zebrafish; type: in vivo; conditions: for caudal fin regeneration after mechanical resection: zebrafish, compound in water 10 μM, 4 days
Experimental: FIG. 25. […] Arrows indicate the points of resection.
(§1) 6 month-old zebrafish were incubated 8 or 14 days at 28.5° C. in aquarium water supplemented with 10 μM IWR or in 0.1% DMSO as a control. Fish were fed standard diet, and solutions were changed daily. At the end of the exposure, zebrafish were incubated in 1 mM BrdU in aquarium water for 2 hrs at room temperature, then washed several times in aquarium water, anesthetized with 0.1% Tricaine, and fixed in 4% paraformaldehyde for 48 hrs at 4° C. The intestine was dissected out, dehydrated, paraffin embedded and sectioned at […] intervals. Sections were stained with Hematoxylin and Eosin or processed for BrdU immunohistochemistry as described (Shepard et al., 2005). Sections from 8 animals each from IWR and DMSO groups were independently scored by four blinded observers. The total number of intestinal folds and total number of BrdU-positive nuclei in the mid and distal sections of the intestine were counted from each section. For caudal fin regeneration assays, zebrafish, 3-6 months of age, were anaesthetized in 0.2% Tricaine and half of the fin was resected using a razor blade to remove Amputees were reared at 31° C. in tanks containing either 300 ml of water with DMSO or IWR (10 μM). Water and compounds were replenished daily for a total assay period of 4 days.

Wnt3A = Wnt3A phase separation (lipidation) assay in HEK 293 cells; type: cell-based, human; conditions: detergent solubility fractionation assay
Experimental: Biochemical studies involving L-Wnt-STF or DLD-1 cells were performed in either 48- or 6-well format with IWR (10 μM) or IWP (5 μM) compounds and/or cycloheximide (100 μM) in a 48 hr assay period. Targeting of APC using RNAi in L-cells was achieved by transfecting cells with SMARTPool APC siRNAs (50 nM; Dharmacon). E-cadherin depletion studies were performed at 4° C. using DLD-1 cells lysed in PBS/1% NP-40/protease inhibitors. For Wnt3A phase separation assays, murine Porcupine (C isoform) and human Wnt3A-myc were transfected into HEK 293 cells (6 well format, 400K cells/well) as appropriate using Effectene transfection reagent (QIAGEN). After 48 hrs of incubation, cells were lysed for 15 min, RT with PL buffer (distilled water, 10 mM tris-HCl, 150 mM NaCl)/1% TritionX-114. Lysate was briefly chilled on ice, pelleted for 10 min 4° C., and the supernatant combined with an equal volume of PL buffer/3.5% TX-114. Solutions were rotated for 15 min at 4° C., placed at 37° C. for 5 mM followed by an additional centrifugation for 5 mM at 2000 g, RT. Distinct phases were collected and combined with PL buffer to a total volume of 1 mL Samples were chilled on ice, ConA sepharose (GE Healthcare) added, and samples rotated for 2 hrs at 4° C. Beads washed 2× with PL buffer, and a Western blot performed with eluted proteins using an anti-c-myc antibody. […]

[3] = test system: Wnt/β-catenin pathway response induced by Wnt1, Wnt2, or Wnt3a; experiment: STF reporter, pathway activity induced by Wnt1, Wnt2 or Wnt3a; type: cell-based; conditions: FL normalized to RL
Experimental: FIGS. 9A-C. […] FIG. 9A. Summary of results relating to IWR and IWP compounds from the screening process. Wnt pathway tests were performed in either cells responding to autonomously-produced Wnt protein (L-Wnt-STF cells) or exogenously provided Wnt in conditioned medium (HEK293 cells). FIG. 9B. […] Left: schematic of Wnt-Gaussia luciferase (Wnt-GL) fusion protein used to monitor levels of secreted Wnt protein in the cell medium. Right: levels of Wnt-GL but not GL secreted from cells treated with IWP compounds are decreased as compared to cells treated with carrier. The Wnt-GL protein elicits levels of Wnt/β-catenin pathway response similar to that of Wnt3a protein (data not shown). FIG. 9C. […] FL activity was normalized to control RL activity as before.

[4] = test system: zebrafish gastrointestinal (GI) tract; experiment: homeostatic renewal of the zebrafish GI tract (BrdU incorporation, histology); type: in vivo
Experimental: as §1

Wnt/β-catenin pathway = experiment: Western blot of Wnt/β-catenin pathway markers (LRP6 and Dvl2 phosphorylation, β-catenin accumulation) in L-Wnt-STF cells; type: cell-based, mouse; conditions: L-Wnt cells
Excerpt: FIG. 3. Biochemical evidence for Wnt/β-catenin pathway inhibition by IWR and IWP compounds. […] Cellular lysates were subjected to Western blot analysis to determine levels of LRP6 and Dvl2 phosphorylation, and β-catenin accumulation, all biochemical events associated with Wnt/β-catenin pathway activity. Predictably, IWPs blocked all three biochemical events, whereas IWRs appear to block β-catenin accumulation without affecting LRP6 and Dv12 phosphorylation. Kif3A and tubulin serve as loading controls.
(§2) Biochemical studies involving L-Wnt-STF or DLD-1 cells were performed in either 48- or 6-well format with IWR (10 μM) or IWP (5 μM) compounds and/or cycloheximide (100 μM) in a 48 hr assay period. Targeting of APC using RNAi in L-cells was achieved by transfecting cells with SMARTPool APC siRNAs (50 nM; Dharmacon). E-cadherin depletion studies were performed at 4° C. using DLD-1 cells lysed in PBS/1% NP-40/protease inhibitors. For Wnt3A phase separation assays, murine Porcupine (C isoform) and human Wnt3A-myc were transfected into HEK 293 cells (6 well format, 400K cells/well) as appropriate using Effectene transfection reagent (QIAGEN). After 48 hrs of incubation, cells were lysed for 15 min, RT with PL buffer (distilled water, 10 mM tris-HCl, 150 mM NaCl)/1% TritionX-114. […]

β-catenin = β-catenin accumulation in L-cells treated with APC siRNAs; type: cell-based; conditions: mouse L-cells treated with APC siRNAs
Excerpt: FIGS. 5A-H. Stabilization of the Axin2 destruction complex by IWR compounds. FIG. 5A. IWR compounds block β-catenin accumulation induced by loss of APC tumor suppressor. […] FIG. 5B. IWRs block aberrant Wnt/β-catenin pathway activity in the colorectal cancer (CRC) cells. Aberrant Wnt/β-catenin pathway activity in DLD-1 cells, CRC cells which harbor a loss-of-function mutation in APC, is abrogated by IWR compounds. Pathway activity was monitored using the STF reporter and normalized to RL control reporter as before. FIG. 5C. IWRs induce accumulation of Axin2 protein. Western blot analysis of proteins involved in regulating β-catenin levels in DLD-1 cells reveal accumulation of Axin2 protein in cells treated with IWR compounds with little change in expression levels of other pathway components. Note that the APC protein is truncated in these cells. FIG. 5D. Levels of β-catenin in CRC cells available for Wnt response are decreased in the presence of IWR compounds. […] FIG. 5E. IWR stabilizes Axin2 protein. Rapid destruction of Axin2 protein is apparent in DLD-1 cells treated with the protein synthesis inhibitor cycloheximide. […] FIG. 5F. […] FIG. 5G. […] FIG. 5H. A proposed model of IWR action. Addition of IWR to cells induces stabilization of Axin2 protein with consequential increase in β-catenin destruction. […]

[5] = test system: Axin2 and β-catenin in DLD-1 cells; experiment: biochemical studies of destruction complex components in DLD-1 cells (Western blot, E-cadherin depletion, cycloheximide); type: cell-based
Excerpt: FIGS. 5A-H. Stabilization of the Axin2 destruction complex by IWR compounds. FIG. 5A. IWR compounds block β-catenin accumulation induced by loss of APC tumor suppressor. […] FIG. 5B. IWRs block aberrant Wnt/β-catenin pathway activity in the colorectal cancer (CRC) cells. Aberrant Wnt/β-catenin pathway activity in DLD-1 cells, CRC cells which harbor a loss-of-function mutation in APC, is abrogated by IWR compounds. Pathway activity was monitored using the STF reporter and normalized to RL control reporter as before. FIG. 5C. IWRs induce accumulation of Axin2 protein. Western blot analysis of proteins involved in regulating β-catenin levels in DLD-1 cells reveal accumulation of Axin2 protein in cells treated with IWR compounds with little change in expression levels of other pathway components. Note that the APC protein is truncated in these cells. FIG. 5D. Levels of β-catenin in CRC cells available for Wnt response are decreased in the presence of IWR compounds. […] FIG. 5E. IWR stabilizes Axin2 protein. Rapid destruction of Axin2 protein is apparent in DLD-1 cells treated with the protein synthesis inhibitor cycloheximide. […] FIG. 5F. […] FIG. 5G. […] FIG. 5H. A proposed model of IWR action. Addition of IWR to cells induces stabilization of Axin2 protein with consequential increase in β-catenin destruction.
as §2, with “Targeting” for “Biochemical studies involving L-Wnt-STF or DLD-1 cells were performed in either 48- or 6-well format with IWR (10 μM) or IWP (5 μM) compounds and/or cycloheximide (100 μM) in a 48 hr assay period. Targeting”, “TritionX-114. Lysate was briefly chilled on ice, pelleted for 10 min 4° C., and the supernatant combined with an equal volume of PL buffer/3.5% TX-114.” for “TritionX-114.”

Structure (SMILES)	inhibition of cancerous cell growth [1]	caudal fin regeneration after mechanical resection [2]	levels of lipidated Wnt3A (Wnt3A)	pathway activity induced by Wnt1, Wnt2, or Wnt3a [3]	fin regeneration after removal of the chemical ([2]; zebrafish bred 7 d in water containing compound, then removal)	adverse signs in treated fish ([4]; zebrafish treated for periods longer than 4 days)	BrdU-labeled cells at the base of intestinal folds ([4]; zebrafish, 10 μM in water, 8 days)	accumulation of β-catenin (Wnt/β-catenin pathway)	β-catenin accumulation induced by loss of APC (β-catenin)	levels of β-catenin not bound to E-cadherin ([5]; DLD-1 cells)	Axin2 protein turn-over ([5]; DLD-1 cells with cycloheximide)	expression of Wnt/β-catenin target gene Axin2 ([5]; DLD-1 cells, exposure for 2 h)
COc1ccc(-n2nc(C(=O)NCC(=O)Nc3nc4ccc(OC)cc4s3)c3ccccc3c2=O)cc1 [IWP-1]	consistently more effective than IWR-4											
Cc1ccc2nc(NC(=O)CSc3nc4c(c(=O)n3-c3ccccc3)SCC4)sc2c1 [IWP-2]		failed to do so	decreased	decreased								
O=C(Nc1cccc2cccnc12)c1ccc(N2C(=O)[C@@H]3[C@H](C2=O)[C@@H]2C=C[C@H]3C2)cc1 [IWR-1]		suppressed fin regeneration		decreased	able to regenerate tissue to nearly normal levels after chemical removal	lethargy and decreased appetite	decreased number	inhibit accumulation of β-catenin	can be blocked	decreased	little turn-over of Axin2	decrease in the expression of Axing
